For one data set, the system named is Artemia salina larvae. Nature of the data set: Brine shrimp lethality (BSL) test. In kind it is in vivo. To be noted: mortality at 24 h, mean ± SEM. On the procedure:
To obtain the LD50 of the thirteen compounds isolated by TLC, we performed the brine shrimp assay according to the procedure described by Meyer et al.. We exposed groups of 10 shrimp in brine to concentrations of 0.5, 1, 5, 10 µg mL^−1 of each product (P1-P13). The concentrations were reached by dissolving the compounds in 2 mL of ethanol, subsequently transferring to different flasks. After evaporating the solvent at room temperature, we introduced the BS and adjusted the volume with artificial seawater to 5 mL. We performed this test in triplicate for each compound.

The next data set relates to U-937 cells. The experiment in a line: cells. To be noted: read-out: CC50 (median cytotoxic concentration causing 50% cell death). On the procedure:
The cell line U-937 was acquired (ATCC: CRL 1593.2, Middlesex, UK) and characterized as a type of diffuse monocytic NHL; for its propagation two million cells were used and seeded in RPMI 1640 medium (Roswell Park Memorial Institute) supplemented with 2 mM L-glutamine, 10% v/v fetal bovine serum (Thermo), 100 mM 1% sodium pyruvate, and 1% penicillin/streptomycin. The cells were kept in an atmosphere with a concentration of carbon dioxide (CO2) at 5% at 37 °C.
We evaluated the in vitro cytotoxic activity using the cell proliferation reagent WST-1, based on the cleavage of tetrazolium salts to formazan by the enzyme mitochondrial dehydrogenase. For cell proliferation, the Quick Cell Proliferation Kit II (Abcam, Cambridge, UK, Cat. No. ab65475) was used, 96-well plates were used and 2 × 10^5 cells per well were seeded in a final volume of 100 µL/well of culture medium. […] After 24 h, viability was assessed by the addition of 10 µL of WST-1 reagent and the cells were further incubated for 2 h at 37 °C and 5% CO2. Finally, the absorbance at 440 nm was measured using a microplate reader.

Data set [1] deals with lymph node growth in mice inoculated with U-937 cells. The experiment in a line: Antilymphoma activity in Balb/c mice inoculated with U-937 cells. In kind it is in vivo. The note with it: oral, 9 days treatment, mean ± SEM, n = 6; for ED50 Female (inhibition of lymph node growth): female Balb/c mice inoculated with U-937 cells; for ED50 Male (inhibition of lymph node growth): male Balb/c mice inoculated with U-937 cells. The source says: We induced lymphoma following the method of Calzada et al.. We randomly formed fifteen groups of male mice and of female mice (n = 6). […] After cell inoculation, we observed all animals for the following 28 days, after which we orally administered treatments for 9 days. Over the following 28 days, we recorded the weight and survival of the animals. Finally, at day 65, we sacrificed the animals and removed and weighed the left and right axillary and inguinal lymph nodes.

The next data set can be described thus: in vivo. To be noted: female, Balb/c, mouse, in vivo, po. On the procedure:
(§1) Twenty-four female mice of the Balb/c strain were randomly used to form 8 groups (n = 3). […] The control group was administered with only the vehicle (Tween 80 at 2% in water) and for the compounds, doses of 500 and 1000 mg kg^−1 were administered. […] Subsequently, we sacrificed the animals and extracted the organs (stomach, intestines, spleen, liver, and kidneys) were extracted, reporting the pathological changes, if any.

The test system of another data set is Balb/c mice. Nature of the data set: in vivo. To be noted: for TI Female (therapeutic index, LD50/ED50) / TI Male (therapeutic index, LD50/ED50): LD50 acute oral toxicity / ED50 antilymphoma activity; for TI Female (therapeutic index, LD50/ED50): female mice; for TI Male (therapeutic index, LD50/ED50): male mice; for OECD acute systemic toxicity category: acute oral toxicity, OECD guideline 423; for OECD acute systemic toxicity category / Mortality in acute oral toxicity test: mice; for Mortality in acute oral toxicity test: until end of study (14 days). The protocol: as §1

The subject of a further data set is U-937 cell line. More on the design: method as in PMID 34638856. The note with it: viability analysis by flow cytometry; cited from earlier work.

Read-outs that look alike come from different tables or passages of the source.

In general, LD50 refers to the dose at which mortality reaches 50%. Turning to `CC(=O)OC/C=C(\C)CC/C=C(\C)CCC=C(C)C` [FA, [(E,E)-3,7,11-trimethyldodeca-2,6,10-trienyl] acetate], in the data set with Artemia salina larvae (n = 3, listed as AF), the “LD50 (median lethal dose causing 50% of A. salina death)” value amounted to 5.82 ± 0.58 µg/mL. Moreover, the “LD50 (median lethal dose causing 50% of A. salina death)” value in the data set with Artemia salina larvae (n = 3, listed as FA (P10)) was 5.82 ± 0.58 µg/mL. Besides, the CC50 with U-937 cells (Homo sapiens, U-937, 24 h) was found to be 275 ± 80 µM. In addition, in data set [1], the “ED50 Female (inhibition of lymph node growth)” value stood at 5.89 ± 0.39 mg/kg and the “ED50 Male (inhibition of lymph node growth)” value is 5.09 ± 0.66 mg/kg. Further, the LD50 at 14 days in the data set “in vivo” was > 1000 mg/kg. Also, in the data set with Balb/c mice, the “TI Female (therapeutic index, LD50/ED50)” value turned out to be 169.77; the “TI Male (therapeutic index, LD50/ED50)” value stood at 196.46; the “OECD acute systemic toxicity category” value was “category 4 (category 4, low risk > 300 and ≤2000 mg/kg)”; the “TI (therapeutic index) in both sexes” value is on record as > 100. For the same molecule, the “Mortality in acute oral toxicity test” value with Balb/c mice (single oral dose) is reported as “did not cause mortality”.
For `CC(C)=CCC/C(C)=C/CC/C(C)=C/CC/C(C)=C/CO` [Gg, (2E,6E,10E)-3,7,11,15-tetramethylhexadeca-2,6,10,14-tetraen-1-ol], the “LD50 (median lethal dose causing 50% of A. salina death)” value in the data set with Artemia salina larvae (n = 3) came out at 1.41 ± 0.42 µg/mL. For the same molecule, the CC50 in the data set with U-937 cells (Homo sapiens, U-937, 24 h) amounted to 395 ± 5 µM. In data set [1], the “ED50 Female (inhibition of lymph node growth)” value turned out to be 7.22 ± 0.51 mg/kg and the “ED50 Male (inhibition of lymph node growth)” value came to 6.98 ± 0.57 mg/kg. In the data set “in vivo”, the 50% lethal dose (LD50) at 14 days came out at 742.17 ± 0.34 mg/kg. Also, in the data set with Balb/c mice, the “TI Female (therapeutic index, LD50/ED50)” value amounted to 138.5; the “OECD acute systemic toxicity category” value is “category 4 (category 4, low risk > 300 and ≤2000 mg/kg)”; the “TI (therapeutic index) in both sexes” value is reported as > 100. For the same molecule, the “Mortality in acute oral toxicity test” value in the data set with Balb/c mice (single oral dose) was “caused death in the animals”.
On to `CN(Cc1cnc2nc(N)nc(N)c2n1)c1ccc(C(=O)N[C@@H](CCC(=O)O)C(=O)O)cc1` [MTX, methotrexate, reference compound], for which the CC50 with U-937 cells (Homo sapiens, U-937, 24 h) is 243 ± 7 µM; in the data set with U-937 cell line it was 0.5 µM. The “ED50 Female (inhibition of lymph node growth)” value in data set [1] worked out at 1.31 ± 0.34 mg/kg. The “ED50 Male (inhibition of lymph node growth)” value in data set [1] stood at 0.99 ± 0.024 mg/kg. This molecule also had a 50% lethal dose (LD50) at 14 days in the data set “in vivo” of 335 ± 0.39 mg/kg.
For “(2E,7R,11R)-3,7,11,15-tetramethylhexadec-2-en-1-ol [PT]”, the “LD50 (median lethal dose causing 50% of A. salina death)” value in the data set with Artemia salina larvae (n = 3) worked out at 3.03 ± 0.33 µg/mL. In addition, in the data set on U-937 cells (U-937 cells, 24 h exposure, WST-1, mean ± SEM, n = 3), the CC50 came out at 296 ± 70 µM. Moreover, in data set [1], the “ED50 Female (inhibition of lymph node growth)” value was determined as 6.71 ± 0.31 mg/kg and the “ED50 Male (inhibition of lymph node growth)” value is 5.83 ± 0.50 mg/kg. In the data set on Balb/c mice, the “TI Female (therapeutic index, LD50/ED50)” value was 149.03; the “TI Male (therapeutic index, LD50/ED50)” value is given as 171.52; the “OECD acute systemic toxicity category” value was “category 4 (category 4, low risk > 300 and ≤2000 mg/kg)”; the “TI (therapeutic index) in both sexes” value is given as > 100. In addition, the “LD50 (median lethal dose, acute oral toxicity)” value in the data set on Balb/c mice (female Balb/c mice, single oral dose, 14 days observation, n = 3) is >1000 mg/kg. In the data set with Balb/c mice (single oral dose), the “Mortality in acute oral toxicity test” value is given as “did not cause mortality”.

These data come from publication PMC9607537, “Understanding the Antilymphoma Activity of Annona macroprophyllata Donn and Its Acyclic Terpenoids: In Vivo, In Vitro, and In Silico Studies” (Molecules, 2022).
